Key:
Assay in all cases: Test A postemergence, visual injury rating
Assay type in all cases: in vivo
[1] = system: barnyardgrass (Echinochloa crus-galli); settings: 0 is no effect, 100 is complete control; for Barnyardgrass plant response rating: 0 to 100 scale, approximately 10 days; for pest or weed control at 125 g/ha / pest or weed control at 500 g/ha: Echinochloa crus-galli, post-emergence, 240 h, read-out: Barnyardgrass plant response rating (0 to 100 scale)
Procedure, shortened: (§1)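 Visual injury scored 0–100 (100 = complete control) against untreated controls about 10 days after treatment in a greenhouse. Test chemicals, formulated with surfactant in non-phytotoxic solvent, were sprayed on soil preemergence or on 2-10 cm, one- to two-leaf plants postemergence.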

[2] = system: blackgrass (Alopecurus myosuroides); settings: for pest or weed control at 125 g/ha / pest or weed control at 500 g/ha: Alopecurus myosuroides, post-emergence, 240 h, read-out: Blackgrass plant response rating (0 to 100 scale)
Procedure, shortened: as §1

[3] = system: galium (catchweed bedstraw, Galium aparine); settings: for pest or weed control at 125 g/ha / pest or weed control at 500 g/ha: Galium, post-emergence, 240 h, read-out: Galium plant response rating (0 to 100 scale)
Procedure, shortened: as §1

[4] = 31 g ai/ha, 0 to 100 scale (0 no effect, 100 complete control)
[5] = 125 g ai/ha, 0 to 100 scale, 0 is no effect, 100 is complete control, approximately 10 days
[6] = 125 g ai/ha, 0 is no effect, 100 is complete control
[7] = 500 g ai/ha, 0 is no effect, 100 is complete control
[8] = 31 g ai/ha, 0 to 100 scale, 0 is no effect, 100 is complete control, approximately 10 days

FC(F)(F)CCCCc1c(Cl)cccc1Oc1ncc(Cl)cn1 [Compound 137]
Barnyardgrass plant response rating ([1]; 31 g ai/ha): 20 | Barnyardgrass plant response rating ([1]; 125 g ai/ha): 60 | Blackgrass plant response rating [2, 4]: 10 | Blackgrass plant response rating [2, 5]: 30 | Galium plant response rating [3, 4]: 40 | Galium plant response rating [3, 5]: 100

N#CCCOC(=O)c1c(Br)cccc1Oc1ncc(Cl)cn1 [Compound 7]
Barnyardgrass plant response rating (0 to 100 scale) ([1]; 125 g ai/ha): 30 | Barnyardgrass plant response rating (0 to 100 scale) ([1]; 500 g ai/ha): 90 | Blackgrass plant response rating (0 to 100 scale) [2, 6]: 30 | Blackgrass plant response rating (0 to 100 scale) [2, 7]: 80 | Galium plant response rating (0 to 100 scale) [3, 6]: 100 | Galium plant response rating (0 to 100 scale) [3, 7]: 100

C=CCOC(=O)c1c(Br)cccc1Oc1ncc(Cl)cn1 [Compound 22, 2-propen-1-yl 2-bromo-6-[(5-chloro-2-pyrimidinyl)oxy]benzoate]
pest or weed control at 125 g/ha ([1]; 125 g ai/ha): 60% | pest or weed control at 500 g/ha ([1]; 500 g ai/ha): 100% | pest or weed control at 125 g/ha [2, 6]: 60% | pest or weed control at 500 g/ha [2, 7]: 90% | pest or weed control at 125 g/ha [3, 6]: 30% | pest or weed control at 500 g/ha [3, 7]: 90%

O=C(OCC(F)(F)F)c1c(Br)cccc1Oc1ncc(Cl)cn1 [Compound 35]
Barnyardgrass plant response rating (0 to 100 scale) ([1]; 125 g ai/ha): 10 | Barnyardgrass plant response rating (0 to 100 scale) ([1]; 500 g ai/ha): 80 | Blackgrass plant response rating (0 to 100 scale) [2, 6]: 40 | Blackgrass plant response rating (0 to 100 scale) [2, 7]: 80 | Galium plant response rating (0 to 100 scale) [3, 6]: 60 | Galium plant response rating (0 to 100 scale) [3, 7]: 100

O=C(CCC(F)(F)C(F)(F)F)c1c(Br)cccc1Oc1ncc(Cl)cn1 [Compound 110]
Barnyardgrass plant response rating ([1]; 31 g ai/ha): 30 | Barnyardgrass plant response rating ([1]; 125 g ai/ha): 60 | Blackgrass plant response rating [2, 8]: 0 | Blackgrass plant response rating [2, 5]: 50 | Galium plant response rating [3, 8]: 70 | Galium plant response rating [3, 5]: 100

O=C(OCC(F)(F)C(F)(F)F)c1c(Br)cccc1Oc1ncc(Cl)cn1 [Compound 23, 2,2,3,3,3-pentafluoropropyl 2-bromo-6-[(5-chloro-2-pyrimidinyl)oxy]benzoate]
pest or weed control at 125 g/ha ([1]; 125 g ai/ha): 10% | pest or weed control at 500 g/ha ([1]; 500 g ai/ha): 50% | pest or weed control at 125 g/ha [2, 6]: 10% | pest or weed control at 500 g/ha [2, 7]: 50% | pest or weed control at 125 g/ha [3, 6]: 90% | pest or weed control at 500 g/ha [3, 7]: 100%
